Source: patent US12540117B2, “Aniline compound used as RORγ regulator” (SHANGHAI LITEDD CO., LTD., priority 2020, dated 2026)

Assays:
RORγt = molecular target: T1, RORγt (Homo sapiens, UniProt P51449); assay: In vitro luciferase reporter assay of RORγt inhibition (GAL4-RORγ-LBD in HEK293T); settings: for Emax: HEK-293T; for Emax / Emax %: relative maximum inhibition rate relative to AZD-0284 at 10 μM; for IC50: IC50, RORγt luciferase reporter gene, HEK293T
T1 sequence (P51449 269-508 limits assumed): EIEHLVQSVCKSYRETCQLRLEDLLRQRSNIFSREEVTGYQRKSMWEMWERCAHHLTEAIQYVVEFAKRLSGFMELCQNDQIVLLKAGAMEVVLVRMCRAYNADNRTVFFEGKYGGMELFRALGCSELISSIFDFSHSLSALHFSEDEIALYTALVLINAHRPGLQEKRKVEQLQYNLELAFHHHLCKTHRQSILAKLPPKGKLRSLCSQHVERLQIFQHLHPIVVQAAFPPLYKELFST
Source text: The RORγ-LBD coding sequence was inserted into pBIND plasmid (Promega, E1581). The expression vector and a reporter vector (pGL4.35 carrying a stably integrated luciferase reporter gene driven by GAL4 promoter) were co-expressed in HEK293T host cells. When the inhibitor binds to the corresponding chimeric receptor, the chimeric receptor binds to the GAL4 binding site on the reporter gene carrier and inhibits reporter gene expression. The inhibition activity of the compounds on RORγ was determined according to the intensity of the chemiluminescence signal.
2.2 Cell Transfection • a) Balancing the Trans-IT transfection reagent at room temperature; • b) Adding 20 μl of the transfection reagent and 600 μl of Opti-MEM™ medium without contacting the tube wall, mixing uniformly through blowing and pipetting by a pipette gun, and allowing to stand at room temperature for 5 minutes; • c) Adding 10 μg of the plasmid to the transfection reagent (see Step 2.2.b), and allowing to stand at room temperature for 20 minutes; • Plasmids: 5 μg of pBIND-RORγ and 5 μg of pGL4.35 plasmids were respectively added therein; • d) Adding the mixed DNA transfection reagent to a 100 mm cell culture dish (see Step 2.1); • e) Placing the dish in an incubator at 37° C. and 5% CO2 for 5 h. […] Calculation of % Inhibition
[formula] • RLUcmpd: fluorescence value of test compounds • RLUpositive: average value of positive control • RLUvehicle: average value of negative control
IC50s of the compounds were calculated by fitting the % Inhibition and the logarithm values of the compound concentration using Graphad 8.0.

[1] = Metabolic stability in human liver microsomes; type: in vitro ADME
Source text: (§1) According to standard methods for investigating in vitro metabolic stability in the art, e.g., the methods described in Kerns, Edward H. and Di Li (2008). Drug-like Properties: Concepts, Structure Design and Methods: from ADME to Toxicity Optimisation. San Diego: Academic Press; Di, Li et al., Optimisation of a Higher Throughput Microsomal Stability Screening Assay for Profiling Drug Discovery Candidates, J. Biomol. Screen. 2003, 8(4), 453, the liver microsomal metabolic stability test of the compounds of the present disclosure was carried out analogously as follows. The incubation system comprising 0.5 mg protein/mL microsomes, cofactors, and PBS, was pre-incubated at 37° C. for 3 min, and then added the substrate (i.e., the test compounds) to initiate the reaction. Samples were taken at 0, 1, 5, 10, 15, 20, 30 and 60 min from the start of the reaction, and an appropriate terminator was added to terminate the reaction. Sample treatment (n=3): appropriate samples were added respectively, vortexed and centrifuged at high speed. The supernatants were collected and detected for the substrate by HPLC-MS/MS. The peak area at the 0 mm was taken as 100%. The peak areas at other time points were converted to percentages of remaining. The natural logarithms of the percentages of remaining at each time point was plotted against the incubation time, and the slope (−k) was calculated by linear regression. Then, Clint (μL/min/mg) and half-life (T½, min.) of the compounds were calculated following the equation: Inherent clearance rate (Clint)=(k*Volume of incubation solution)/Mass of liver microsomes.

[2] = Metabolic stability in mouse liver microsomes; type: in vitro ADME, CD-1 mice
Source text: as §1

[3] = Pharmacokinetic (PK) assay in mice; type: in vivo, C57BL/6 mice; settings: for AUC(0-t) / Cmax / half-life / Vd / bioavailability: C57BL/6, mouse, plasma; for Vd: read-out: Vss; for bioavailability: Po 5 mg/kg vs IV 1 mg/kg
Protocol: The PK of each compound was determined as follows: 6 C57BL/6 mice (obtained from Shanghai Lingchang Biotechnology Co., Ltd.) were divided into two groups with 3 in each group. One group was administered intravenously at a dose of 1 mg/kg in the vehicle of 5% DMSO/95% (20% Captisol); the other group was administered by oral gavage at a dose of 5 mg/kg in the vehicle of 0.5% CMC-Na/0.5% Tween 80. Blood samples were collected from saphenous vein of lower leg in each group at 0, 0.083, 0.25, 0.5, 1, 2, 4, 6, 8 and 24 h after administration. Approximately 40 μL of the blood samples were collected into anticoagulant tubes containing EDTA-K2 Immediately after collection, the tubes were inverted at least 5 times to ensure uniform mixing, and then placed on ice. The blood samples collected at each time point were centrifuged at 4° C., 8000 rpm for 5 minutes to obtain plasma. Another 1.5 mL centrifuge tube was marked with the compound name, animal number, and time point, and the plasma was transferred to this tube. The plasma was stored at −80° C. until analysis.
Compound concentrations in the plasma were determined by UPLC-MS/MS method, and the pharmacokinetic parameters were calculated from the obtained data by Phoenix WinNolin 6.4 pharmacokinetic software.

What does the source list for `CNS(=O)(=O)c1ccc2c(c1)CCN(C(C)=O)C2C(=O)Nc1ccc(C(O)(C(F)(F)F)C(F)(F)F)cc1` (stereo not shown) [Example 22, 2-Acetyl-N-(4-(1,1,1,3,3,3-hexafluoro-2-hydroxypropan-2-yl)phenyl)-6-(N-methylsulfamoyl)-1,2,3,4-tetrahydroisoquinoline-1-carboxamide]?
Emax (RORγt): 102%; IC50 (RORγt): 17.8 nM

Which Emax (RORγt) does the source give for `CCS(=O)(=O)c1ccc2c(c1)CCN(C(C)=O)C2C(=O)Nc1ccc(C(O)(C(F)(F)F)C(F)(F)F)cc1F` (stereo not shown) [Example 10, 2-Acetyl-6-(ethylsulfonyl)-N-(2-fluoro-4-(1,1,1,3,3,3-hexafluoro-2-hydroxypropan-2-yl)phenyl)-1,2,3,4-tetrahydroisoquinoline-1-carboxamide] here?
The Emax was 102%.

What about the IC50 (RORγt) of the same compound?
Its IC50 is 40.5 nM.

What does the source list for `CCS(=O)(=O)c1ccc2c(c1)CCN(C=O)C2C(=O)Nc1ccc(C(O)(C(F)(F)F)C(F)(F)F)cc1` (stereo not shown) [Example 19, 6-(Ethylsulfonyl)-2-formyl-N-(4-(1,1,1,3,3,3-hexafluoro-2-hydroxypropan-2-yl)phenyl)-1,2,3,4-tetrahydroisoquinoline-1-carboxamide]?
Emax (RORγt): 101%; IC50 (RORγt): 14.7 nM

With `CC(=O)N1CCc2cc(S(C)(=O)=O)ccc2C1C(=O)Nc1ccc(C(O)(C(F)(F)F)C(F)(F)F)cc1F` (stereo not shown) [Example 11, 2-Acetyl-N-(2-fluoro-4-(1,1,1,3,3,3-hexafluoro-2-hydroxypropan-2-yl)phenyl)-6-(methylsulfonyl)-1,2,3,4-tetrahydroisoquinoline-1-carboxamide] as the compound, how does the Emax (RORγt) read?
The Emax was 104%.

What about the IC50 (RORγt) of the same compound?
The IC50 was 91.3 nM.

What does the source list for `CCS(=O)(=O)c1ccc2c(c1)CCN(C(=O)C1CC1)C2C(=O)Nc1ccc(C(O)(C(F)(F)F)C(F)(F)F)cc1` (stereo not shown) [Example 14, 2-(Cyclopropanecarbonyl)-6-(ethylsulfonyl)-N-(4-(1,1,1,3,3,3-hexafluoro-2-hydroxypropan-2-yl)phenyl)-1,2,3,4-tetrahydroisoquinoline-1-carboxamide]?
Emax (RORγt): 98.8%; IC50 (RORγt): 83.4 nM

What does the source list for `CCS(=O)(=O)c1ccc2c(c1)CCN(C(C)=O)C2C(=O)Nc1ccc(C(F)(C(F)(F)F)C(F)(F)F)cc1` (single isomer, unassigned) [Example 8, (R)-2-acetyl-6-(ethylsulfonyl)-N-(4-(perfluoropropan-2-yl)phenyl)-1,2,3,4-tetrahydroisoquinoline-1-carboxamide or (S)-2-acetyl-6-(ethylsulfonyl)-N-(4-(perfluoropropan-2-yl)phenyl)-1,2,3,4-tetrahydroisoquinoline-1-carboxamide]?
Emax (RORγt): 99.2%; IC50 (RORγt): 3.78 nM

With `CCS(=O)(=O)c1ccc2c(c1)CCN(C(C)=O)C2C(=O)Nc1ccc(C(F)(C(F)(F)F)C(F)(F)F)cc1` (single isomer, unassigned) [Example 9, (S)-2-acetyl-6-(ethylsulfonyl)-N-(4-(perfluoropropan-2-yl)phenyl)-1,2,3,4-tetrahydroisoquinoline-1-carboxamide or (R)-2-acetyl-6-(ethylsulfonyl)-N-(4-(perfluoropropan-2-yl)phenyl)-1,2,3,4-tetrahydroisoquinoline-1-carboxamide] as the compound, how does the IC50 (RORγt) read?
The IC50 was 616 nM.

What about the Emax % (RORγt) of the same compound?
Its Emax % is 107.1%.

What does the source list for `CC(=O)N1CCc2cc(S(C)(=O)=O)ccc2C1C(=O)Nc1ccc(C(O)(C(F)(F)F)C(F)(F)F)cc1` (stereo not shown) [Example 5, 2-Acetyl-N-(4-(1,1,1,3,3,3-hexafluoro-2-hydroxypropan-2-yl)phenyl)-6-(methylsulfonyl)-1,2,3,4-tetrahydroisoquinoline-1-carboxamide]?
half-life ([1]; 0.5 mg protein/mL): > 2.42 h; Remaining % (T = 60 min) ([1]; T = 60 min): 85.0%; microsomal CLint ([1]; read-out: CLint(mic)): < 9.6 µL/min/mg; half-life ([2]; CD-1, 0.5 mg protein/mL): > 2.42 h; microsomal CLint ([2]; CD-1, read-out: CLint(mic)): < 9.6 µL/min/mg; Remaining % (T = 60 min) ([2]; T = 60 min): 86.6%; AUC(0-t) ([3]; IV, 1 mg/kg): 1190 ng·h/mL; Cmax ([3]; IV, 1 mg/kg): 1890 ng/mL; half-life ([3]; IV, 1 mg/kg): 4.89 h; Vd ([3]; IV, 1 mg/kg): 3.34 L/kg; bioavailability [3]: 213%; AUC(0-t) ([3]; Po, 5 mg/kg): 12600 ng·h/mL; Cmax ([3]; Po, 5 mg/kg): 1370 ng/mL; half-life ([3]; Po, 5 mg/kg): 4.33 h; CL_obs ([3]; IV, 1 mg/kg): 13.8 mL/min/kg

Which results are given for `CC(=O)N1Cc2cc(S(C)(=O)=O)ccc2[C@@H]1C(=O)Nc1ccc(C(O)(C(F)(F)F)C(F)(F)F)cc1` [AZD-0284, reference compound]?
AUC(0-t) ([3]; IV, 1 mg/kg): 1180 ng·h/mL; Cmax ([3]; IV, 1 mg/kg): 2480 ng/mL; half-life ([3]; IV, 1 mg/kg): 7.75 h; Vd ([3]; IV, 1 mg/kg): 6.29 L/kg; bioavailability [3]: 38%; AUC(0-t) ([3]; Po, 5 mg/kg): 2780 ng·h/mL; Cmax ([3]; Po, 5 mg/kg): 264 ng/mL; half-life ([3]; Po, 5 mg/kg): 3.35 h; CL_obs ([3]; IV, 1 mg/kg): 12.6 mL/min/kg

Which results are given for `CCC(=O)N1CCc2cc(S(=O)(=O)CC)ccc2C1C(=O)Nc1ccc(C(O)(C(F)(F)F)C(F)(F)F)cc1` (stereo not shown) [Example 13, 6-(Ethylsulfonyl)-N-(4-(1,1,1,3,3,3-hexafluoro-2-hydroxypropan-2-yl)phenyl)-2-propionyl-1,2,3,4-tetrahydroisoquinoline-1-carboxamide]?
Emax (RORγt): 101%; IC50 (RORγt): 154 nM

With `CCS(=O)(=O)c1ccc2c(c1)CCN(C(C)=O)C2C(=O)Nc1cc(Cl)c(C2=CCOCC2)c(Cl)c1` (stereo not shown) [Example 18, 2-Acetyl-N-(3,5-dichloro-4-(3,6-dihydro-2H-pyran-4-yl)phenyl)-6-(ethylsulfonyl)-1,2,3,4-tetrahydroisoquinoline-1-carboxamide] as the compound, how does the Emax (RORγt) read?
The Emax was 95.8%.

What about the IC50 (RORγt) of the same compound?
The IC50 was 107 nM.

For `CC(=O)N1CCc2cc(S(C)(=O)=O)ccc2C1C(=O)Nc1cc(Cl)c(C2=CCOCC2)c(Cl)c1` (stereo not shown) [Example 17, 2-Acetyl-N-(3,5-dichloro-4-(3,6-dihydro-2H-pyran-4-yl)phenyl)-6-(methylsulfonyl)-1,2,3,4-tetrahydroisoquinoline-1-carboxamide], which Emax (RORγt) is on record?
Its Emax is 95.9%.

And the IC50 (RORγt)?
Its IC50 is 67.1 nM.

Which results are given for `CCS(=O)(=O)c1ccc2c(c1)CCN(C(C)=O)C2C(=O)Nc1ccc(C(O)(C(F)(F)F)C(F)(F)F)cc1` (single isomer, unassigned) [Example 3, (S)-2-acetyl-6-(ethylsulfonyl)-N-(4-(1,1,1,3,3,3-hexafluoro-2-hydroxypropan-2-yl)phenyl)-1,2,3,4-tetrahydroisoquinoline-1-carboxamide or (R)-2-acetyl-6-(ethylsulfonyl)-N-(4-(1,1,1,3,3,3-hexafluoro-2-hydroxypropan-2-yl)phenyl)-1,2,3,4-tetrahydrosoquinoline-1-carboxamide]?
IC50 (RORγt): 681 nM; Emax % (RORγt): 111.3%

Which Emax (RORγt) does the source give for `CCS(=O)(=O)c1ccc2c(c1)CCN(C(=O)CCC(=O)O)C2C(=O)Nc1ccc(C(O)(C(F)(F)F)C(F)(F)F)cc1` (stereo not shown) [Example 4, 4-(6-(Ethylsulfonyl)-1-((4-(1,1,1,3,3,3-hexafluoro-2-hydroxypropan-2-yl)phenyl)carbamoyl)-3,4-dihydroisoquinolin-2(1H)-yl)-4-oxobutanoic acid] here?
The Emax was 73.8%.

What about the IC50 (RORγt) of the same compound?
The IC50 was 3050 nM.

For `CC(=O)N1CCc2cc(S(=O)(=O)CC3CC3)ccc2C1C(=O)Nc1ccc(C(O)(C(F)(F)F)C(F)(F)F)cc1` (stereo not shown) [Example 21, 2-Acetyl-6-((cyclopropylmethyl)sulfonyl)-N-(4-(1,1,1,3,3,3-hexafluoro-2-hydroxypropan-2-yl)phenyl)-1,2,3,4-tetrahydroisoquinoline-1-carboxamide], which Emax (RORγt) is on record?
The Emax was 102%.

And the IC50 (RORγt)?
Its IC50 is 12.5 nM.

Which results are given for `CCS(=O)(=O)c1ccc2c(c1)CCN(C(C)=O)C2C(=O)Nc1ccc(OC(F)(F)F)cc1` (stereo not shown) [Example 12, 2-Acetyl-6-(ethylsulfonyl)-N-(4-(trifluoromethoxy)phenyl)-1,2,3,4-tetrahydroisoquinoline-1-carboxamide]?
Emax (RORγt): 95.7%; IC50 (RORγt): 290 nM
